According to paper PMC8125234, “Cardiolipin Stabilizes and Increases Catalytic Efficiency of Carnitine Palmitoyltransferase II and Its Variants S113L, P50H, and Y479F” (International Journal of Molecular Sciences, 2021):
Changes are numbered by the printed parent chain.

Tests used:
CPT II variant Y479F = biological target: T1, CPT II variant Y479F (Homo sapiens, UniProt P23786, Y479F); experiment: Influence of CL on the enzyme activity; assay type: biochemical
T1 construct: made in house; host or cells: Escherichia coli BL21Gold DE
T1 sequence (P23786 26-658 Y479F): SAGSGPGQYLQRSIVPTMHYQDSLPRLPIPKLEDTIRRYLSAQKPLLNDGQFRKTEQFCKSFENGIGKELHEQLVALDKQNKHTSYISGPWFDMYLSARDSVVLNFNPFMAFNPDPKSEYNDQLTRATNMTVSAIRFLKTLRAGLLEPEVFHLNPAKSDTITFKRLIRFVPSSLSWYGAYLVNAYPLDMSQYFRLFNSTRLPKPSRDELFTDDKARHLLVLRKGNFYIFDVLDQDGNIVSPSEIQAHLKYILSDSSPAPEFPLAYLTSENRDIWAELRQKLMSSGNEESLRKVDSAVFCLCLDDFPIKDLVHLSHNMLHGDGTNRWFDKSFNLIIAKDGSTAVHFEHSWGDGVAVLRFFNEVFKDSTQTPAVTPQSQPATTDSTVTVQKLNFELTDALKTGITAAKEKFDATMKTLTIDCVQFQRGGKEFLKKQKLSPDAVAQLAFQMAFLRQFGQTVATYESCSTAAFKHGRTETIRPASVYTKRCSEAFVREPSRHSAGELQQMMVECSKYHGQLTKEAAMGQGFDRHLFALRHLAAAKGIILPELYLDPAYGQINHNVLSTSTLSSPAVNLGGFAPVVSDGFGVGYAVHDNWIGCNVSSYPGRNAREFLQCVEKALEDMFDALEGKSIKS
Protocol: Then, the effect of CL, as a potential stabilizing agent, was investigated in the activity assay. Therefore, 0.1 mg/mL recombinant enzyme was incubated with various concentrations of CL (0.125, 0.25 or 0.5 mM) or buffer at 30 and 42 °C, respectively.
Before activity measurements, the storage buffer of the enzymes was replaced with assay buffer (50 mM KH2PO4, 120 mM KCl, 1 mM EDTA-Na4) using vivaspin turbo 4 tubes (Satorius Stedim biotech GmbH, Göttingen, Germany) at 4 °C. The pH of assay buffer was adjusted with KOH to 7.4. The storage buffer was diluted at least 1:500 in assay buffer. In addition, before each experimental set up, the protein samples were centrifuged at 16,000× g for 5 min at 4 °C to remove any micro-aggregates. After that, the protein concentration was determined using bicinchoninic acid (BCA) protein assay kit (Thermo Fisher Scientific GmbH, Berlin, Germany). The enzyme activity of recombinant CPT II was performed following Rufer et al. with modifications described elsewhere. […] After pre-conditioning the mixture to 25 °C for 2 min, the reaction was started by adding 15 nM of recombinant enzyme. The reverse reaction of CPT II was detected with the enzyme activity assay. CPT II catalyzed the transfer of fatty acid residue from Pal-CoA to L-carnitine with release of CoA and Pal-carnitine. The released CoA was then detected by the reaction of the free thiol group with DTNB, forming 5-mercapto-(2-nitrobenzoic acid). This compound has a molar extinction coefficient of 13,600 M^−1 cm^−1 at a wavelength of 410 nm, and its formation was followed spectroscopically. […] The slope of the progress curve was used to determine the reaction velocity.
The purified enzymes were incubated at different temperatures (30, 37, 40 and 42 °C) using a protein concentration of 1 mg/mL during the incubation periods to investigated the half-lives of WT and variants. 0.1 mg/mL enzyme was incubated with or without CL (0.125, 0.25 and 0.5 mM) in the assay buffer. The enzyme activities were determined by adding 15 nM of pre-incubated enzyme according to Section 4.3 after various incubation times up to 60 min at an assay temperature of 25 °C. Experiments were done at least three times independently as double determination.

CPT II variant P50H = biological target: T2, CPT II variant P50H (Homo sapiens, UniProt P23786, P50H); experiment: nanoDSF protein stability in presence of CL or β-OG; assay type: binding
T2 construct: made in house; host or cells: Escherichia coli BL21Gold DE
T2 sequence (P23786 26-658 P50H): T1 sequence (P23786 26-658 Y479F) with P25H, F454Y
Protocol: NanoDSF is a standard method for the investigation of the folding/unfolding of proteins and the interaction of proteins with effectors/ligands/substrates
The protein stability was investigated applying nano differential scanning fluorimetry (nanoDSF) using a protein concentration of 1 mg/mL in assay buffer. […] The heating rate has been set to 1 °C per min. A heating ramp from 15 to 95 °C was determined. The nanoDSF data were obtained using a Prometheus NT.48 device. First derivatives were calculated using PR.ThermControl software (NanoTemper Technologies GmbH, Munich, Germany). Experiments were performed at least three times independently as double determination.

Substance: Cardiolipin [CL]
- Increase of the enzymatic activity by CL (CPT II variant Y479F): 1.8 fold
- Maximal Enzymatic Activity (CPT II variant Y479F; 0.5 mM CL, w/o CL = 100): 151.7 ± 7.6%
- Enzymatic activity in the presence of CL (CPT II variant Y479F; before incubation periods): 175%
- Increase of ΔTM-value due to the addition of CL (CPT II variant P50H; 0.25 mM CL): +13 °C
- TM in Buffer with 0.25 mM CL (CPT II variant P50H; 1 mg/mL protein): 40.2 ± 0.7 °C
- ∆TM in Buffer with 0.25 mM CL (CPT II variant P50H; reference TM of WT in buffer (ΔTM = 0 °C)): 3.3 ± 0.1 °C
